Results from ChEMBL document CHEMBL5550205, “Discovery of a NCOA4 Degrader for Labile Iron-Dependent Ferroptosis Inhibition” (J Med Chem, 2024).
The source made the active and inactive calls. No cut-off for these calls is given here.

Tests used:
[1] = system: AML12; assay: Upregulation of FTH1 level in mouse AML12 cells incubated for 24 hrs by Western blot analysis; format: functional, cell-based; settings: dose <= 10.0 µM
[2] = target: von Hippel-Lindau disease tumor suppressor/Nuclear receptor coactivator 4 (Mus musculus) (UniProt P40338+Q5U4H9); assay: PROTAC activity at NCOA4/VHL in mouse AML12 cells assessed as effect on NCOA4 mRNA level at 0.12 to 10 uM incubated for 24 hrs by qRT-PCR analysis; format: cell-based; settings: dose 0.12-10 µM
von Hippel-Lindau disease tumor suppressor/Nuclear receptor coactivator 4 (Mus musculus), sequence (P40338 whole entry, looked up): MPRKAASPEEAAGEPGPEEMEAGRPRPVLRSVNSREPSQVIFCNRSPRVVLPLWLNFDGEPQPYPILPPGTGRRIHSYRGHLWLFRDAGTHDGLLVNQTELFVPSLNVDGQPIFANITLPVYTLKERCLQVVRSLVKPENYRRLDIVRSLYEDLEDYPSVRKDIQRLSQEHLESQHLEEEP
von Hippel-Lindau disease tumor suppressor/Nuclear receptor coactivator 4 (Mus musculus), sequence (Q5U4H9 whole entry, looked up): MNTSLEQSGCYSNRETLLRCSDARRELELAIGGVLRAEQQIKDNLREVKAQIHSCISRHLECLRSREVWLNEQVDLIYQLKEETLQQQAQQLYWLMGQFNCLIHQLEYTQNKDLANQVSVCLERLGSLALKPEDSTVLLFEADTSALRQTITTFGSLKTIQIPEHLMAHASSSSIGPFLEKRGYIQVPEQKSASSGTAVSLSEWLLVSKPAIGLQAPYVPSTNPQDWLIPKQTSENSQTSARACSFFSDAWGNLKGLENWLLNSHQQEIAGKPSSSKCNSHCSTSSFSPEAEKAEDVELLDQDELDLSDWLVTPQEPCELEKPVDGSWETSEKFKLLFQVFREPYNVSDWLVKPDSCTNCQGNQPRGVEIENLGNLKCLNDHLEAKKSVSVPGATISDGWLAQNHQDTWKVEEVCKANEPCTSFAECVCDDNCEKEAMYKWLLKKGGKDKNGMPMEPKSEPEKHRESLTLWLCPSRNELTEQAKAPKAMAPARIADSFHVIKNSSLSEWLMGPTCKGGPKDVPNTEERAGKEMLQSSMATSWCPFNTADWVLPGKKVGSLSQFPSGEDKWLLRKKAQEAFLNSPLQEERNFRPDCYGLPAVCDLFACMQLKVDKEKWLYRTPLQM

[3] = system: AML12; assay: Protection against Erastin-induced ferroptosis in mouse AML12 cells assessed as reduction in lipid peroxidation level at 200 nM measured for 48 hrs; format: functional, cell-based
[4] = target: von Hippel-Lindau disease tumor suppressor/Nuclear receptor coactivator 4 (Mus musculus, UniProt P40338+Q5U4H9); assay: PROTAC activity at NCOA4/VHL in mouse AML12 cells assessed as reduction in intracellular NCOA4 level incubated for 24 hrs by Western blot analysis; format: cell-based
von Hippel-Lindau disease tumor suppressor/Nuclear receptor coactivator 4 (Mus musculus, UniProt P40338+Q5U4H9), sequence (P40338 whole entry): as the sequence (P40338 whole entry, looked up) above
von Hippel-Lindau disease tumor suppressor/Nuclear receptor coactivator 4 (Mus musculus, UniProt P40338+Q5U4H9), sequence (Q5U4H9 whole entry): as the sequence (Q5U4H9 whole entry, looked up) above

[5] = target: von Hippel-Lindau disease tumor suppressor/Nuclear receptor coactivator 4 (Homo sapiens, UniProt P40337+Q13772); assay: PROTAC activity at NCOA4/VHL in human HeLa cells assessed as downregulation of NCOA4 level measured after 3 hrs by Western blot analysis; format: cell-based
von Hippel-Lindau disease tumor suppressor/Nuclear receptor coactivator 4 (Homo sapiens, UniProt P40337+Q13772), sequence (P40337 whole entry, looked up): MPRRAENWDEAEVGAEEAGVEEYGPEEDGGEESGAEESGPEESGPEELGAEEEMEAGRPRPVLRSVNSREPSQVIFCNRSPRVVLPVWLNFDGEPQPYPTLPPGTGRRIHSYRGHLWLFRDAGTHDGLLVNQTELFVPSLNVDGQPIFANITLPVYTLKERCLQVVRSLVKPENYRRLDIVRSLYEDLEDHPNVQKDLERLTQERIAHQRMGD
von Hippel-Lindau disease tumor suppressor/Nuclear receptor coactivator 4 (Homo sapiens, UniProt P40337+Q13772), sequence (Q13772 whole entry, looked up): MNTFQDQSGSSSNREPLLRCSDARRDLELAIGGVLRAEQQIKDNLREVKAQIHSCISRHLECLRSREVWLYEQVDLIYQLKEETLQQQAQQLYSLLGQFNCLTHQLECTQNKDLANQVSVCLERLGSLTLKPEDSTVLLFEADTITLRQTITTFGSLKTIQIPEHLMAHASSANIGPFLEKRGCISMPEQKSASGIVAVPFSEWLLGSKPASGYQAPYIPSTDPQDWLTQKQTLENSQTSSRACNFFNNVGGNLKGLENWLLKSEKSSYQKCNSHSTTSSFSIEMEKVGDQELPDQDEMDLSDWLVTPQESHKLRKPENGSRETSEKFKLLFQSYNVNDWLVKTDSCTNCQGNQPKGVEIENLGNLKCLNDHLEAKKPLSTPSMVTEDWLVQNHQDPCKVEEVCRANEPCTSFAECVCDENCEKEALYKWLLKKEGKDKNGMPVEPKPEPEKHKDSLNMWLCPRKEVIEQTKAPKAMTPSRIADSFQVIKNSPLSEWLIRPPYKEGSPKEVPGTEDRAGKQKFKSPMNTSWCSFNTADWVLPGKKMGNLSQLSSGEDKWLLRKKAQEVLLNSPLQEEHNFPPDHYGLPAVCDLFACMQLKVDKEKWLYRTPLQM

[6] = system: Mus musculus; assay: Inhibition of CCl4-induced ferroptosis in acute liver injury C57BL/6 mouse model assessed as decrease in TNF-alpha expression in liver at 10 to 30 mg/kg, ip pretreated with compound for 3 hrs followed by CCl4 induction and measured after 12 to 24 hrs by q-PCR analysis; format: functional, organism-based; settings: dose 10-30 mg/kg, time 15-27 hrs
[7] = system: Mus musculus; assay: Inhibition of CCl4-induced ferroptosis in acute liver injury C57BL/6 mouse model assessed as downregulation of NCOA4 level at 10 to 30 mg/kg, ip pretreated with compound for 3 hrs followed by CCl4 induction and measured after 12 to 24 hrs by Western blot analysis; format: functional, organism-based; settings: dose 10-30 mg/kg, time 15-27 hrs
[8] = system: Mus musculus; assay: Inhibition of CCl4-induced ferroptosis in acute liver injury C57BL/6 mouse model assessed as reduction in hepatocyte damage at 10 to 30 mg/kg, ip pretreated with compound for 3 hrs followed by CCl4 induction and measured after 12 to 24 hrs by H and E staining based analysis; format: functional, organism-based; settings: dose 10-30 mg/kg, time 15-27 hrs
[9] = system: AML12; assay: Protection against FINO2-induced ferroptosis in mouse AML12 cells assessed as reduction in lipid peroxidation level at 200 nM measured for 48 hrs; format: functional, cell-based
[10] = system: AML12; assay: Protection against Erastin-induced ferroptosis in mouse AML12 cells assessed as attenuation of Fe2+ level by fluorescence imaging analysis; format: functional, cell-based
[11] = system: AML12; assay: Effect on FTH1 mRNA expression in mouse AML12 cells at 0.12 to 10 uM measured for 36 hrs by RT-qPCR analysis; format: functional, cell-based; settings: dose 0.12-10 µM
[12] = system: AML12; assay: Protection against RSL3-induced ferroptosis in mouse AML12 cells assessed as increase in cell viability at 200 nM measured for 48 hrs by cell counting-lite 2.0 analysis; format: functional, cell-based
[13] = system: Mus musculus; assay: Inhibition of CCl4-induced ferroptosis in acute liver injury C57BL/6 mouse model assessed as restoration of liver color fading at 10 to 30 mg/kg, ip pretreated with compound for 3 hrs followed by CCl4 induction and measured after 12 to 24 hrs; format: functional, organism-based; settings: dose 10-30 mg/kg, time 15-27 hrs
[14] = system: Mus musculus; assay: Inhibition of CCl4-induced ferroptosis in acute liver injury C57BL/6 mouse model assessed as attenuation of iron deposition in liver at 10 to 30 mg/kg, ip pretreated with compound for 3 hrs followed by CCl4 induction and measured after 12 to 24 hrs by perls blue staining based analysis; format: functional, organism-based; settings: dose 10-30 mg/kg, time 15-27 hrs
[15] = system: AML12; assay: Downregulation of lipid hydroperoxide level in mouse AML12 cells at 200 nM measured for 36 hrs; format: functional, cell-based
[16] = system: Mus musculus; assay: Inhibition of CCl4-induced ferroptosis in acute liver injury C57BL/6 mouse model assessed as inhibition of ALT level at 10 to 30 mg/kg, ip pretreated with compound for 3 hrs followed by CCl4 induction and measured after 12 to 24 hrs; format: functional, organism-based; settings: dose 10-30 mg/kg, time 15-27 hrs
[17] = system: Mus musculus; assay: Inhibition of CCl4-induced ferroptosis in acute liver injury C57BL/6 mouse model assessed as reduction in IL-6 level in serum at 10 to 30 mg/kg, ip pretreated with compound for 3 hrs followed by CCl4 induction and measured after 12 to 24 hrs by ELISA analysis; format: functional, organism-based; settings: dose 10-30 mg/kg, time 15-27 hrs
[18] = system: AML12; assay: Downregulation of MDA level in mouse AML12 cells measured for 36 hrs; format: functional, cell-based; settings: dose <= 10.0 µM
[19] = system: Mus musculus; assay: Inhibition of CCl4-induced ferroptosis in acute liver injury C57BL/6 mouse model assessed as reduction in MDA content in liver at 10 to 30 mg/kg, ip pretreated with compound for 3 hrs followed by CCl4 induction and measured after 12 to 24 hrs; format: functional, organism-based; settings: dose 10-30 mg/kg, time 15-27 hrs
[20] = system: AML12; assay: Protection against CCl4-induced ferroptosis in mouse AML12 cells assessed as cell viability in presence of Deferoxamine; format: functional, cell-based
[21] = system: AML12; assay: Protection against CCl4-induced ferroptosis in mouse AML12 cells assessed as reduction in Fe2+ level at 200 to 1000 nM FerroOrange dye based fluorescence analysis; format: functional, cell-based; settings: dose 200-1000 nM
[22] = system: Mus musculus; assay: Inhibition of CCl4-induced ferroptosis in acute liver injury C57BL/6 mouse model assessed as decrease in IL-1beta expression in liver at 10 to 30 mg/kg, ip pretreated with compound for 3 hrs followed by CCl4 induction and measured after 12 to 24 hrs by q-PCR analysis; format: functional, organism-based; settings: dose 10-30 mg/kg, time 15-27 hrs
[23] = system: AML12; assay: Protection against Erastin-induced ferroptosis in mouse AML12 cells assessed as increase in cell viability at 200 nM measured for 48 hrs by cell counting-lite 2.0 analysis; format: functional, cell-based
[24] = system: Mus musculus; assay: Inhibition of CCl4-induced ferroptosis in acute liver injury C57BL/6 mouse model assessed as decrease in IL-6 expression in liver at 10 to 30 mg/kg, ip pretreated with compound for 3 hrs followed by CCl4 induction and measured after 12 to 24 hrs by q-PCR analysis; format: functional, organism-based; settings: dose 10-30 mg/kg, time 15-27 hrs
[25] = system: Mus musculus; assay: Inhibition of CCl4-induced ferroptosis in acute liver injury C57BL/6 mouse model assessed as downregulation of FTH1 level at 10 to 30 mg/kg, ip pretreated with compound for 3 hrs followed by CCl4 induction and measured after 12 to 24 hrs by Western blot analysis; format: functional, organism-based; settings: dose 10-30 mg/kg, time 15-27 hrs
[26] = system: Mus musculus; assay: Inhibition of CCl4-induced ferroptosis in acute liver injury C57BL/6 mouse model assessed as reduction in necrosis at 10 to 30 mg/kg, ip pretreated with compound for 3 hrs followed by CCl4 induction and measured after 12 to 24 hrs by H and E staining based analysis; format: functional, organism-based; settings: dose 10-30 mg/kg, time 15-27 hrs
[27] = system: AML12; assay: Protection against iFSP-induced ferroptosis in mouse AML12 cells assessed as increase in cell viability at 200 nM measured for 48 hrs by cell counting-lite 2.0 analysis; format: functional, cell-based
[28] = system: AML12; assay: Protection against Brequinal-induced ferroptosis in mouse AML12 cells assessed as attenuation of Fe2+ level by fluorescence imaging analysis; format: functional, cell-based
[29] = system: AML12; assay: Protection against Brequinal-induced ferroptosis in mouse AML12 cells assessed as increase in cell viability at 200 nM measured for 48 hrs by cell counting-lite 2.0 analysis; format: functional, cell-based
[30] = system: AML12; assay: Inhibition of Ptgs2 mRNA expression in mouse AML12 cells measured for 36 hrs by qRT-PCR analysis; format: functional, cell-based; settings: dose <= 10.0 µM
[31] = system: AML12; assay: Effect on FTL mRNA expression in mouse AML12 cells at 0.12 to 10 uM measured for 36 hrs by RT-qPCR analysis; format: functional, cell-based; settings: dose 0.12-10 µM

SMILES: Cc1ncsc1-c1ccc(CNC(=O)[C@@H]2C[C@@H](O)CN2C(=O)[C@H](NC(=O)CCCC(=O)NCCOCCOCCOCCOc2ccc3c(c2)CCN(c2cccc(-c4nc5ccc(N6CCN(C)CC6)cc5[nH]4)c2)C3)C(C)(C)C)cc1
- Activity [1]: Dose-Dependent Effect
- Activity [2]: Active
- Activity [3]: Active
- DC50 [4]: 202 nM
- Activity [5]: Active
- inhibition [6]: Active
- inhibition [7]: Active
- inhibition [8]: Active
- Activity [9]: Active
- Activity [10]: Active
- Activity [11]: inactive
- Activity [12]: Active
- inhibition [13]: Active
- inhibition [14]: Active
- Activity [15]: Active
- inhibition [16]: Active
- inhibition [17]: Active
- Activity [18]: Dose-Dependent Effect
- inhibition [19]: Active
- EC50 [20]: 410 nM
- Activity [21]: Active
- inhibition [22]: Active
- Activity [23]: Active
- inhibition [24]: Active
- inhibition [25]: Active
- inhibition [26]: Active
- Activity [27]: Active
- Activity [28]: Active
- Activity [29]: Active
- inhibition [30]: Dose-Dependent Effect
- Activity [31]: inactive
